Measurements published in US20250273333A1, “Methods and Apparatus for Diagnosis of Progressive Kidney Function Decline Using a Machine Learning Model” (ICAHN SCHOOL OF MEDICINE AT MOUNT SINAI, priority 2020, published 2025).
Values joined by “and” are separate entries in the source; they are usually repeats but may differ in a detail not shown here. Equal entries are not always repeated.

Assays:
Assay type in all cases: in vivo, human
[1] = test system: participants with type 2 diabetes and prevalent DKD; assay: CANVAS trial post hoc analysis: KidneyIntelX risk score over time, canagliflozin vs placebo
Procedure: Blood and urine samples for exploratory biomarker research can be stored during the CANVAS trial. In some instances, participants can be randomly assigned using a central web-based response system in a 1:1:1 ratio to treatment with 100 mg canagliflozin, 300 mg canagliflozin, or matching placebo. In some instances, participants can be assigned to treatment with canagliflozin or placebo followed for a median of 6.1 years. All participants, care providers, trial staff, and outcome assessors can be blinded to treatment allocation for the duration of the study. […]
Continuous baseline variables with normal distributions can be reported as means with standard deviations (SDs). […] Risk values can be calculated by the KidneyIntelX (using the diagnosis device 101) on the participants in the placebo and canagliflozin arms of CANVAS with prevalent DKD, with the inputs as per the currently commercially available test which include the following: baseline TNFR-1, TNFR-2 and KIM-1 levels, TNFR-2/TNFR-1 ratio, KIM-1/TNFR-1 ratio, eGFR, UACR, HbA1C, systolic BP, AST, platelets, and serum calcium. […] Therefore, by determining proportion experiencing the composite kidney event within the categorical risk strata and used logistic regression, the relative odds of the endpoint for high vs. low risk and intermediate risk score strata can be determined. […]

[2] = test system: participants with type 2 diabetes and prevalent DKD; assay: CANVAS trial post hoc analysis: chronic eGFR slope, canagliflozin vs placebo, by risk strata
Procedure: (§1) Blood and urine samples for exploratory biomarker research can be stored during the CANVAS trial. In some instances, participants can be randomly assigned using a central web-based response system in a 1:1:1 ratio to treatment with 100 mg canagliflozin, 300 mg canagliflozin, or matching placebo. In some instances, participants can be assigned to treatment with canagliflozin or placebo followed for a median of 6.1 years. All participants, care providers, trial staff, and outcome assessors can be blinded to treatment allocation for the duration of the study. KidneyIntelX algorithm can be indicated for individuals with type 2 diabetes and prevalent DKD, defined by an eGFR ≥30 to 59.9 ml/min/1.73 m2 (G3a and G3b) or those with eGFR ≥60 ml/min/1.73 m2 with a UACR ≥30 mg/g to assess the risk for progressive decline in kidney function within a time period (e.g., 5 years). Thus, for analyses, the subgroup of the CANVAS population can be restricted to meet criteria for prevalent DKD at a time of enrollment.
(§2) A composite kidney outcome for such post hoc analysis can be defined as: A) progressive decline in kidney function (rapid kidney function decline (e.g., RKFD; with eGFR decline of ≥5 ml/min/year)); B) a sustained 40% decline of eGFR; or C) kidney failure defined as an eGFR <15 mL/min/1.73 m^2 or need for dialysis or kidney transplantation. In CANVAS, eGFR measurements were available at baseline, 6 weeks and annually. Since hemodynamic effects of SGLT2i on acute changes in eGFR, the anchor/baseline to define progressive decline in kidney function and 40% decline in eGFR for participants in the canagliflozin arm can be the eGFR value at 6 weeks. In some instances, when the eGFR value meet ≥40% decline from baseline only on the last eGFR obtained in the CANVAS protocol, then the event can be adjudicated by a blinded adjudication committee to determine qualification as a valid event. In some instances, eGFR slopes can be determined by linear mixed models.
To explore whether baseline KidneyIntelX scores modified the treatment effect of canagliflozin versus placebo on the composite kidney outcome and chronic eGFR compared to the treatment effect as per the baseline KDIGO risk strata, tests for heterogeneity can be performed by adding interaction terms between KidneyIntelX or KDIGO and randomized treatment assignment to the relevant logistic regression models for the categorical outcome and mixed linear models for the eGFR slopes. The treatment effect of canagliflozin versus placebo on KidneyIntelX risk scores over time can be assessed by calculating the difference of change in risk values generated by the KidneyIntelX algorithm (e.g., using the diagnosis device 101) between treatment arms using mixed linear models. […]

[3] = test system: participants with type 2 diabetes and prevalent DKD; assay: CANVAS trial post hoc analysis: composite kidney outcome, canagliflozin vs placebo, by KidneyIntelX risk strata; conditions: for incidence of the composite kidney outcome: canagliflozin arm
Procedure: as §1, §2
Continuous baseline variables with normal distributions can be reported as means with standard deviations (SDs). Variables with skewed distributions can be reported as median values with interquartile range (IQRs) and can be natural logarithm transformed before analysis. Furthermore, categorical variables can be reported as percentages. Risk values can be calculated by the KidneyIntelX (using the diagnosis device 101) on the participants in the placebo and canagliflozin arms of CANVAS with prevalent DKD, with the inputs as per the currently commercially available test which include the following: baseline TNFR-1, TNFR-2 and KIM-1 levels, TNFR-2/TNFR-1 ratio, KIM-1/TNFR-1 ratio, eGFR, UACR, HbA1C, systolic BP, AST, platelets, and serum calcium. The risk score cutoffs that were previously validated can applied to the CANVAS participants with DKD and available baseline plasma. Each individual can be allocated a predicted probability of the composite outcome using the baseline inputs as per the risk value generated by the KidneyIntelX algorithm and a continuous KidneyIntelX score between 5 and 100 in increments of 5. For example, consistent with the pre-defined commercial cut offs, participants with a risk value between 5 and 45 can be classified as “low risk”, between 50 and 85 can be classified as “intermediate risk”, and those with a risk value between 90 and 100 can be classified as “high risk”. Therefore, by determining proportion experiencing the composite kidney event within the categorical risk strata and used logistic regression, the relative odds of the endpoint for high vs. low risk and intermediate risk score strata can be determined.
Proportion of participants that experienced composite kidney outcome by KidneyIntelX algorithm risk strata can be compared to a proportion as classified by participants' Kidney Disease Improving Global Outcomes (KDIGO) KDIGO risk strata based on their baseline eGFR and UACR value. […]

SMILES: Cc1ccc([C@@H]2O[C@H](CO)[C@@H](O)[C@H](O)[C@H]2O)cc1Cc1ccc(-c2ccc(F)cc2)s1 [canagliflozin, (2S,3R,4R,5S,6R)-2-[3-[[5-(4-fluorophenyl)thiophen-2-yl]methyl]-4-methylphenyl]-6-(hydroxymethyl)oxane-3,4,5-triol]
- duration of effect on KidneyIntelX ([1]; over follow-up, vs placebo (FIG. 24)): persisted over time until the end of follow-up
- decrease of KidneyIntelX from baseline to one year ([1]; randomized to canagliflozin, 95% CI -6.9 to -3.9, placebo increased 6.2%, p<0.001): 5.4%
- difference in chronic eGFR slope, canagliflozin vs. placebo (protection for eGFR decline) ([2]; high risk KidneyIntelX stratum): 2.16 ml/min/1.73 m2
- difference in chronic eGFR slope, canagliflozin vs. placebo ([2]; highest risk KDIGO stratum): 1.31 ml/min/1.73 m2
- difference in chronic eGFR slope, canagliflozin vs. placebo (protection for eGFR decline) ([2]; low risk KidneyIntelX stratum): 0.66 ml/min/1.73 m2
- difference in chronic eGFR slope, canagliflozin vs. placebo (protection for eGFR decline) ([2]; moderate/intermediate risk KidneyIntelX stratum): 1.52 ml/min/1.73 m2
- RR for composite kidney outcome, canagliflozin vs. placebo ([3]; all participants with baseline biomarkers, 95% CI 0.49, 0.99): 0.70
- incidence of the composite kidney outcome ([3]; high risk KidneyIntelX stratum): 23.0% and 23.5%
- incidence of the composite kidney outcome ([3]; intermediate risk KidneyIntelX stratum, mean follow-up 5.6 years): 9.5%
- incidence of the composite kidney outcome ([3]; low risk KidneyIntelX stratum, mean follow-up 5.6 years): 3.6%
- composite kidney outcome occurrence ([3]; canagliflozin group, all participants with baseline biomarkers (placebo 11.6%)): 8.9%
- RR for the kidney outcome, canagliflozin vs. placebo ([3]; high-risk KidneyIntelX stratum, 95% CI 0.38-1.18): 0.67
- absolute risk reduction (ARR) for composite kidney outcome ([3]; high-risk KidneyIntelX stratum, vs placebo arm 31.4%): 7.9%
- RR for the kidney outcome, canagliflozin vs. placebo ([3]; intermediate KidneyIntelX stratum, 95% CI 0.36-0.98): 0.59
- RR for the kidney outcome, canagliflozin vs. placebo ([3]; low-risk KidneyIntelX stratum, 95% CI 0.54-5.08): 1.65
